The record followed here is article PMC11758220, “Identification of a Privileged Scaffold for Inhibition of Sterol Transport Proteins through the Synthesis and Ring Distortion of Diverse, Pseudo-Natural Products” (ACS Central Science, 2025).

The target in one test is T1, ORP1 (Homo sapiens, UniProt Q9BXW6).
T1 construct: ORP1(534-950); host or cells: E. coli BL21(DE3)
T1 sequence (Q9BXW6 534-950): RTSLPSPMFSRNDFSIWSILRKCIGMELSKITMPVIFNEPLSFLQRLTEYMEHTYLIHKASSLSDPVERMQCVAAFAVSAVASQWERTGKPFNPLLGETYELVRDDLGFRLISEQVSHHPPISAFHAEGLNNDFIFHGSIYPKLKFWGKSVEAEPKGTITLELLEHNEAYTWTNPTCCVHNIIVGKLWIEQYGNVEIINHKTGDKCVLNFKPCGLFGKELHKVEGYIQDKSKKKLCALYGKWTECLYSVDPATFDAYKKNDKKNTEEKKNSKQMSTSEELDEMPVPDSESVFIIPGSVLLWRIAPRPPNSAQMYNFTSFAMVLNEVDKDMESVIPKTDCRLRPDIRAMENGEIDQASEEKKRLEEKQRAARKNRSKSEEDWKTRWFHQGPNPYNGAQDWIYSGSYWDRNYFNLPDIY
As to the kind of experiment: Fluorescence polarisation (FP) competition with NBD-cholesterol, ORP1. In kind it is binding. The note with it: for ORP1 (FP) inhibition / inhibition at 10 µM: single dose, Dose = 10 µM; for IC50: mean of three experiments run in technical duplicates. From the text: Protein expression constructs
Human ASTER domains of Aster-A(359-547), -B(364-552) and -C(318-504) were subcloned into a pGEX-6p-2rbs vector, thus introducing the cloning artifact ‘GPLGS’.3 The pGEX-6P-1-GST-OSBP(377- […]
a gift from James H. Hurley (University of California).4 The pHIS_2His6_Thrombin_STARD4(2-205;C75S) plasmid was a gift from Young Jun Im (Chonnam National University).5 STARD5A was a gift from Nicola Burgess-Brown (Addgene plasmid #42392; http://n2t.net/addgene:42392; […]
Protein expression and purification […]
vectors including an N-terminal PreScission-cleavable glutathione S-transferase (GST)-tag were expressed in Escherichia coli (E. coli) OverExpress C41 in Terrific Broth (TB) medium for 16 h at 18 °C after the induction with 0.1 mM isopropyl β-D-1-thiogalactopyranoside (IPTG). Cells were harvested at 3500 × g for 15 minutes and lysed by sonication in buffer containing 50 mM HEPES pH 7.5, 300 mM NaCl, 10 %v/v glycerol, 5 mM dithiothreitol (DTT), 0.1 %v/v Triton X-100 and protease inhibitor mix HP plus (Serva). The lysate was purified by affinity chromatography on a GSTrap FF column (Cytiva) using an ÄKTA Start (Cytiva) in buffer containing 50 mM HEPES pH 7.5, 300 mM NaCl, 10 %v/v glycerol, 5 mM DTT and 0.01 %v/v Triton X-100. The GST-tag was cleaved overnight on the column at 4 °C. The Aster sterol binding domains were further purified by size-exclusion chromatography (SEC) on a HiLoad 16/600 Superdex 75 pg (Cytiva) in buffer containing 20 mM HEPES pH 7.5, 300 mM NaCl, 10 %v/v […]
STARD5(6-213) harboring an N-terminal His6-Tag were expressed in E. coli BL21(DE3) in Luria-Bertani Broth (LB) medium for approximately 16 h at 18 °C after induction with 0.15 mM IPTG. Cells were harvested at 3500 × g for 15 minutes and lysed by sonication in buffer containing 50 mM HEPES pH 7.5, 150 mM NaCl, 5 %v/v glycerol, 5 mM DTT, 0.1 %v/v Triton X -100 and ethylenediaminetetraacetic acid (EDTA)-free protease inhibitor cocktail (Sigma-Aldrich). The cleared lysate was purified by affinity chromatography on a Ni-NTA Superflow Cartridge (Qiagen) using an ÄKTA Start (Cytiva) in buffer containing 50 mM HEPES pH 7.5, 150 mM NaCl, 5 %v/v glycerol, 5 mM DTT. START domains were eluted by using elution buffer containing 50 mM HEPES pH 7.5, 150 mM NaCl, 5 %v/v glycerol, 5 mM DTT and 500 mM imidazole. Proteins were further purified by SEC on a HiLoad 16/600 Superdex 75 pg (Cytiva) in buffer containing 20 mM HEPES pH 7.5, 150 mM NaCl, 5 %v/v glycerol and 2 mM DTT.
The ORP domain of human OSBP(377-807) in the pGEX-6p-1 vector with an N-terminal PreScission-cleavable GST-tag was expressed in E. coli OverExpress C41 in LB medium for 16 h at 18 °C after induction with 0.1 mM IPTG. Cells were harvested at 3500 × g for 15 minutes and lysed by sonication in buffer containing 20 mM HEPES pH 7.5, 300 mM NaCl, 10 %v/v glycerol, 5 mM DTT, 0.1 %v/v Triton X-100 and EDTA-free protease inhibitor cocktail (Sigma-Aldrich). The cleared lysate was purified by affinity chromatography on a GSTrap HF column (Cytiva) using an ÄKTA Start (Cytiva) in buffer containing 20 mM HEPES pH 7.5, 300 mM NaCl, 10 %v/v glycerol, 5 mM DTT. OSBP(377 -807) was eluted by using elution buffer containing 20 mM HEPES pH 7.5, 300 mM NaCl, 10 %v/v glycerol, 5 mM DTT and 10 mM reduced glutathione. Proteins were further purified by SEC on a HiLoad 16/600 Superdex 75 pg (Cytiva) using an ÄKTA Explorer (Cytiva) in buffer containing 20 mM HEPES pH 7.5, 150 mM NaCl, 10 %v/v glycerol and 2 mM DTT.
The ORP domains of human ORP1(534-950) in pET24b(+) and ORP2(49-480) in the pET24b(+) vector including an N-terminal His6-Tag were expressed in E. coli BL21(DE3) in TB medium for approximately 16 h at 18 °C after induction with 0.1 mM IPTG. Cells were collected at 3500 × g for 15 minutes and lysed by sonification in buffer containing 10 mM Tris-HCl pH 8, 300 mM NaCl, 5 % glycerol, 2 mM DTT, 0.1 % Triton X-100 and EDTA-free protease inhibitor cocktail (Sigma-Aldrich). The cleared […]
A general note: In fluorescence polarisation assays a small probe gives low polarisation when free and higher when bound to something large.

The target of a further test is T2, STARD1 (Homo sapiens, UniProt P49675).
T2 construct: STARD1(66-284); made in house; host or cells: E. coli BL21(DE3)
T2 sequence (P49675 66-284): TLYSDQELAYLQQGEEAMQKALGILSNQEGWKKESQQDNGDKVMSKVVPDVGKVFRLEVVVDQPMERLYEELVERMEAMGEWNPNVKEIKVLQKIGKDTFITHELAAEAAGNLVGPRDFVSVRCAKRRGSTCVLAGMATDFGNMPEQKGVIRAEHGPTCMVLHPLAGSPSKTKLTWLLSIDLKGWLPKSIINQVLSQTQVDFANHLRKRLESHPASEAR
Nature of the test: Fluorescence polarisation (FP) competition with NBD-cholesterol, STARD1. In kind it is binding. Particulars: for STARD1 (FP) inhibition / inhibition at 10 µM: single dose, Dose = 10 µM.

Molecules are shown by their SMILES.

For `C[C@]12CC[C@@H](O)C[C@H]1CCc1c2[nH]c2ccc(F)cc12` [Compound 10d], on ORP1, the “ORP1 (FP) inhibition” value was determined as 28.3%. Besides, the “STARD1 (FP) inhibition” value on STARD1 is 90%.

Consider `C[C@]12CC[C@@H](O)C[C@H]1CCc1c2[nH]c2ccc(I)cc12` [Compound 10h], for which the “ORP1 (FP) inhibition” value at ORP1 is 35.8%. The “STARD1 (FP) inhibition” value on STARD1 is 15%.

By inhibition is commonly meant the change of the read-out against control, counted positive when it falls. `Cc1cc(C)c2c3c([nH]c2c1)[C@@]1(C)CC[C@@H](O)C[C@H]1CC3` [Compound 10j]: the inhibition at 10 µM worked out at 11.7% at ORP1 and 17% on STARD1.

In general, IC50 refers to the concentration needed to halve the response being measured. On to `CC12CCC3CC1CCC21C(=Nc2c(Br)cc(C(F)(F)F)cc21)O3` (stereo not drawn) [Compound 15h], for which, on ORP1, the half-maximal inhibitory concentration (IC50) is over 80 µM and the inhibition at 10 µM turned out to be 68.3%. Besides, the inhibition at 10 µM on STARD1 turned out to be 17%.

Turning to `C[C@]12CC[C@@H](O)C[C@H]1CCc1sc(-c3cccnc3)nc12` [Compound 8c], at ORP1, the “ORP1 (FP) inhibition” value was 5.8%. The “STARD1 (FP) inhibition” value at STARD1 is given as -1.67%.

Consider `C[C@]12CC[C@@H](O)C[C@H]1CCc1nc3cc(F)c(F)cc3nc12` [Compound 7c], for which the “ORP1 (FP) inhibition” value at ORP1 is recorded as -5.0%. Further, the “STARD1 (FP) inhibition” value at STARD1 was determined as 12%.

For the compound `C[C@]12CC[C@@H](O)C[C@H]1CCc1c2nc2ccccc2c1-c1ccc(F)cc1` [Compound 2d], the inhibition at 10 µM at ORP1 was 5%; at STARD1, -8%.

Take `C[C@]12CC[C@@H](O)C[C@H]1CCc1c2nc2ccccc2c1-c1ccccc1` [Compound 2b]: the “ORP1 (FP) inhibition” value at ORP1 is recorded as 11.7%. Also, the “STARD1 (FP) inhibition” value at STARD1 is given as -3.33%.

Regarding `C[C@]12CC[C@@H]3C[C@H]1CC[C@@]21C(=Nc2c(F)cc(Cl)cc21)O3` [Compound 15i], the inhibition at 10 µM came to 40% on ORP1 and 28% at STARD1.

For the compound `CC12CCC3CC1CCC21C(=Nc2ccc(N4CCOCC4)cc21)O3` (single isomer, unassigned; (-)) [(−)-19a], on ORP1, the IC50 is over 50 µM and the “ORP1 (FP) inhibition” value was determined as 15.0%. At STARD1 (mean of three experiments run in technical duplicates), this compound yielded an IC50 of over 80 µM. In addition, the “STARD1 (FP) inhibition” value at STARD1 was 30%.

As to `C[C@]12CC[C@@H]3C[C@H]1CC[C@@]21C(=Nc2ccc(C(F)(F)F)cc21)O3` [Compound 15g], at ORP1, the half-maximal inhibitory concentration (IC50) turned out to be 13 µM and the inhibition at 10 µM turned out to be 73.3%. Moreover, the inhibition at 10 µM on STARD1 is 25%.

As for `C[C@]12CC[C@@H](O)C[C@H]1CCc1nc3cc(Br)c(Br)cc3nc12` [Compound 7e], the “ORP1 (FP) inhibition” value at ORP1 is 5.0%. Moreover, on STARD1, the “STARD1 (FP) inhibition” value is on record as 13%.

For the compound `COc1ccc(-c2ccc3c(c2)C24CCC5CC(CCC52C)OC4=N3)cc1` (stereo not drawn) [Compound 21b], on ORP1, the half-maximal inhibitory concentration (IC50) was 5.24 µM and the inhibition at 10 µM was 72.5%. In addition, on STARD1, the inhibition at 10 µM was found to be 38%.

On to `CCCCCNc1ccc2c(c1)[C@@]13CC[C@@H]4C[C@@H](CC[C@@]41C)OC3=N2` [Compound 19c], for which, on ORP1, the IC50 was over 80 µM. Further, the inhibition at 10 µM at ORP1 came to 47.5%; on STARD1, 28%.

With `C[C@]12CC[C@@H](O)C[C@H]1CCC[C@]21NC(=O)c2ccc(F)cc2N1` [Compound 5b], the “ORP1 (FP) inhibition” value on ORP1 is reported as -7.5%. For the same compound, at STARD1, the “STARD1 (FP) inhibition” value came to 1.67% and the inhibition at 10 µM came to 3.33%.

For the compound `C[C@]12CC[C@@H](O)C[C@H]1CCc1c2[nH]c2c(F)cc(Cl)cc12` [Compound 10i], the inhibition at 10 µM at ORP1 was 14.2%; on STARD1 it was -13%.
